Molecules are shown by their SMILES.

The text below walks through data of patent US9615577B2, “Herbicidally active cyclic dione compounds, or derivatives therefor, substituted by a phenyl which has an alkynyl-containing substituent” (Syngenta Limited, priority 2012, dated 2017).

Common to all, as to format: in vivo
Assay [1] relates to Echinochloa crus-galli (ECHCG). Nature of the assay: Biological Example 2 comparative herbicidal data, post-emergence glasshouse screen. As to conditions: 312 h, read-out: Post-emergence herbicidal activities (percentage phytotoxicity) ECHCG; for pest or weed control at 8 g/ha: 8 g/ha application rate; for pest or weed control at 30 g/ha: 30 g/ha application rate. The procedure:
(§1) Seeds of a variety of test species were sown in standard soil in pots. After cultivation for one day (pre-emergence) or after 8 days cultivation (post-emergence) under controlled conditions in a glasshouse (at 24/16° C., day/night; 14 hours light; 65% humidity), the plants were sprayed with an aqueous spray solution derived from the formulation of the technical active ingredient in acetone/I water (50:50) solution containing 0.5% Tween 20 (polyoxyethelyene sorbitan monolaurate, CAS RN 9005-64-5). The test plants were then grown in a glasshouse under controlled conditions in a glasshouse (at 24/16° C., day/night; 14 hours light; 65% humidity) and watered twice daily. After 13 days for pre and post-emergence, the test was evaluated visually for percentage phytotoxicity to the plant (where 100=total damage to plant; 0=no damage to plant).
(§2) Comparative herbicidal data is given below for certain exemplified compounds with 4-(prop-1-ynyl)-2,6-dimethylphenyl or 4-(chloroethynyl)-2,6-dimethylphenyl headgroups, compared to the corresponding compounds with either 4-ethynyl-2,6-dimethylphenyl or 2,4,6-trimethylphenyl headgroups, as follows. Comparative herbicidal data is also given below for certain exemplified compounds with 4-(prop-1-ynyl)-2-chloro-6-methoxyphenyl headgroups, compared to the corresponding compounds with 4-ethynyl-2-chloro-6-methoxyphenyl or 4-(but-1-ynyl)-2-chloro-6-methoxyphenyl or 4-methyl-2-chloro-6-methoxyphenyl or 2-chloro-6-methoxyphenyl headgroups, as follows.
(§3) Except where specified otherwise, the glasshouse screen for herbicidal activity is substantially the same as that presented in Biological Example 1A (Test 1A) hereinabove. The weed abbreviations are as defined in Biological Example 1A.

The subject of assay [2] is Setaria faberi (SETFA). The assay is described as above. The note with it: 312 h, read-out: Post-emergence herbicidal activities (percentage phytotoxicity) SETFA; for pest or weed control at 8 g/ha: 8 g/ha application rate; for pest or weed control at 30 g/ha: 30 g/ha application rate. The protocol: as §1, §2, §3
For assay [3], the system named is Alopecurus myosuroides (ALOMY). The description is as above. As to conditions: 312 h, read-out: Post-emergence herbicidal activities (percentage phytotoxicity) ALOMY; for pest or weed control at 8 g/ha: 8 g/ha application rate; for pest or weed control at 30 g/ha: 30 g/ha application rate. The protocol:
as §1, §2, §3

Assay [4] deals with Echinochloa crus-galli (ECHCG). As to the kind of experiment: Test 1A glasshouse assay for herbicidal activity, post-emergence. As to conditions: 312 h, evaluated after 13 days, read-out: percentage phytotoxicity ECHCG. The protocol: as §1
(§4) Alopecurus myosuroides (ALOMY), Setaria faberi (SETFA), Echinochloa crus-galli (ECHCG), Solanum nigrum (SOLNI), Amaranthus retroflexus (AMARE), Ipomoea hederacea (IPOHE), and Abutilon theophasti Medik. (ABUTH, common English name “velvetleaf”). Of these, Alopecurus myosuroides (ALOMY), Setaria faberi (SETFA), and Echinochloa crus-galli (ECHCG) are grassy monocotyledonous weeds.

Assay [5] has as its system Abutilon theophasti Medik. (ABUTH). The description is as above. As to conditions: 312 h, evaluated after 13 days, read-out: percentage phytotoxicity ABUTH. The protocol: as §1, §4
Assay [6] has as its system Setaria faberi (SETFA). Described as above. The note with it: 312 h, evaluated after 13 days, read-out: percentage phytotoxicity SETFA. The procedure: as §1, §4
The test system of assay [7] is Alopecurus myosuroides (ALOMY). The description is as above. As to conditions: 312 h, evaluated after 13 days, read-out: percentage phytotoxicity ALOMY. The protocol:
as §1, §4

Assay [8] concerns Amaranthus retroflexus (AMARE). Described as above. The note with it: 312 h, evaluated after 13 days, read-out: percentage phytotoxicity AMARE. The protocol: as §1, §4
The test system of assay [9] is Amarantus retroflexus (AMARE). As to the kind of experiment: Biological Example 2 comparative herbicidal data, post-emergence glasshouse screen. As to conditions: Amaranthus retroflexus, read-out: Post-emergence herbicidal activities (percentage phytotoxicity) AMARE; for pest or weed control at 8 g/ha: 8 g/ha application rate; for pest or weed control at 30 g/ha: 30 g/ha application rate.

For assay [10], the system named is Echinochloa crus-galli (ECHCG). Nature of the assay: Test 1A glasshouse assay for herbicidal activity, pre-emergence. As to conditions: 312 h, evaluated after 13 days, read-out: percentage phytotoxicity ECHCG. The procedure: as §1, §4
For assay [11], the system named is Abutilon theophasti Medik. (ABUTH). Described as above. The note with it: 312 h, evaluated after 13 days, read-out: percentage phytotoxicity ABUTH. The protocol: as §1, §4
Assay [12] deals with Setaria faberi (SETFA). Described as above. The note with it: 312 h, evaluated after 13 days, read-out: percentage phytotoxicity SETFA. The protocol:
as §1, §4

Assay [13] deals with Alopecurus myosuroides (ALOMY). The description is as above. As to conditions: 312 h, evaluated after 13 days, read-out: percentage phytotoxicity ALOMY. The procedure:
as §1, §4

The test system of assay [14] is Amaranthus retroflexus (AMARE). Described as above. As to conditions: 312 h, evaluated after 13 days, read-out: percentage phytotoxicity AMARE. The procedure: as §1, §4
Assay [15] deals with Abutilon theophasti Medik. (ABUTH). As to the kind of experiment: Biological Example 2 comparative herbicidal data, post-emergence glasshouse screen. As to conditions: read-out: Post-emergence herbicidal activities (percentage phytotoxicity) ABUTH; for pest or weed control at 8 g/ha: 8 g/ha application rate; for pest or weed control at 30 g/ha: 30 g/ha application rate.

For `C#Cc1cc(Cl)c(C2C(=O)CCCC2=O)c(OC)c1` [Compound B-2, 2-(2-Chloro-4-ethynyl-6-methoxy-phenyl)-3-hydroxy-cyclohex-2-en-1-one], the pest or weed control at 8 g/ha was 0% in [1]; 10% in [2]; 0% in assay [3]; 0% in assay [9]; 0% in assay [15]. For the same compound, the pest or weed control at 30 g/ha in assay [1] came out at 80%; in assay [2], 70%; in assay [3], 0%; in assay [9] it was 0%; in assay [15], 0%. The pest or weed control at 250 g/ha in assay [4] came to 100%; in assay [5], 0%; in assay [6], 90%; in assay [7] it was 70%; in [8], 0%; in assay [10] it was 90%. Besides, the pest or weed control at 250 g/ha in assay [11] amounted to 10%; in assay [12], 90%; in assay [13] it was 60%; in assay [14], 10%.
For the compound `C#Cc1cc(Cl)c(C2C(=O)C3CCC(C3)C2=O)c(OC)c1` (stereo not drawn) [Compound B-3, 3-(2-Chloro-4-ethynyl-6-methoxy-phenyl)bicyclo[3.2.1]octane-2,4-dione], the pest or weed control at 8 g/ha in [1] came out at 20%; in [2], 20%; in assay [3], 0%; in [9] it was 0%; in assay [15], 0%. For the same compound, the pest or weed control at 30 g/ha was determined as 70% in [1], 30% in [3], 0% in assay [9] and 0% in assay [15]. Besides, the pest or weed control at 250 g/ha is 100% in assay [4]; 0% in assay [5]; 90% in [6]; 80% in assay [7]; 0% in [8]; 90% in [10]. Further, the pest or weed control at 250 g/ha in [11] is 100%; in assay [12], 100%; in assay [13], 80%; in [14], 90%.
Regarding `CCC#Cc1cc(Cl)c(C2C(=O)C3CCC(C3)C2=O)c(OC)c1` (stereo not drawn) [Compound B-4], the pest or weed control at 30 g/ha in assay [1] amounted to 80%; in [2], 70%; in [3], 60%; in [9], 20%; in assay [15], 0%. The pest or weed control at 250 g/ha in [4] was determined as 100%; in assay [5] it was 70%; in assay [6], 90%; in assay [7] it was 100%; in [8] it was 30%; in assay [10] it was 100%. In addition, the pest or weed control at 250 g/ha was determined as 10% in assay [11], 70% in assay [12], 100% in [13] and 40% in [14].
For the compound `C#Cc1cc(C)c(C2C(=O)CC(c3ccccn3)CC2=O)c(C)c1` (stereo not drawn) [Compound X-4, reference compound], the pest or weed control at 8 g/ha in [1] was 20%; in assay [2], 40%; in assay [3], 40%; in assay [9], 0%; in [15], 0%. Further, the pest or weed control at 30 g/ha in assay [1] stood at 40%; in [2], 50%; in [3], 60%; in [4] (30 g/ha), 40%; in [5] (30 g/ha), 0%; in [6] (30 g/ha), 50%. For the same compound, the pest or weed control at 30 g/ha came to 60% in assay [7] (30 g/ha); 0% in assay [8] (30 g/ha); 0% in assay [9]; 30% in assay [10] (30 g/ha); 0% in assay [11] (30 g/ha); 40% in assay [12] (30 g/ha). Moreover, the pest or weed control at 30 g/ha in [13] (30 g/ha), in assay [14] (30 g/ha) and in [15] was 0% each time. The pest or weed control at 250 g/ha came to 100% in assay [4]; 80% in assay [5]; 100% in [6]; 80% in [7]; 0% in assay [8]; 90% in [10]. The pest or weed control at 250 g/ha turned out to be 0% in [11], 100% in assay [12], 70% in assay [13] and 0% in [14].
